Experimental data reported in publication PMC2671563 (PLoS Biology, 2009).

Columns and labels:
mS100A8/A9 and mLPS-Trap = target: T1, mS100A8/A9 and mLPS-Trap (Mus musculus, UniProt P31725); experiment: SPR: inhibition of mouse S100A8/A9 binding to mLPS-Trap; conditions: Table S1; read-out: S100A8-9 binding IC50, mS100A8/A9 TLR4
T1 sequence (P31725 2-113 limits assumed): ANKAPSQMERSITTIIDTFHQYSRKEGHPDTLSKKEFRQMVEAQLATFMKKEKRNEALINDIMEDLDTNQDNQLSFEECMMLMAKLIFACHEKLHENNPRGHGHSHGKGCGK
Experimental: (§1) The SPR analysis was carried out with the Biacore 3000 system (GE Healthcare). Sensor chips, amine coupling kit, immobilization and running buffers, and regeneration solutions were obtained from GE Healthcare. Working solutions of all reagents used for Biacore analysis were prepared in 0.01 M Hepes, 0.15 M NaCl (pH 7.4) containing 0.005% v/v Surfactant P-20 (HBS-P; GE Healthcare) by buffer exchange on Fast Protein Desalting Micro-Spin Columns from Pierce. ABR-215757 was immobilised onto a CM5 chip through an amino-linker (ABR-224649). […] Activity of ligands after immobilisation was tested by injecting specific antibodies (unpublished data). In some experiments, S100A9 was immobilized either by random amine coupling or with a known orientation (i.e., by sulhydryl group conjugation to the only cysteine in S100A9 at position 3).
(§2) Binding to the various surfaces was performed by injecting the analyte at a flow rate of 30 μl/min in a physiological buffer (HBS-P) containing 1 mM Ca^2+ and 10 μM Zn^2+ as proposed for S100A8/9 by Robinson et al.. A typical analysis cycle consists of: (1) pumping running buffer for 1 min to obtain a stable baseline; (2) injection of sample for an appropriate period of time (association); (3) pumping running buffer for 2.5 min (dissociation); (4) injection of a short pulse (30 s) of 15 μl 10 mM glycine-HCl (pH 2.0) (regeneration); and (5) pumping running buffer for 2 min (stabilisation after regeneration) at a flow rate of 30 μl/min. […] In one experiment, S100A9 was injected into a buffer with a fixed Ca^2+ concentration (1 mM) and Zn^2+ in the range 0–50 μM. In a second experiment, Ca^2+ was varied from 0–2 mM at a fixed Zn^2+ concentration (10 μM). In subsequent analyses, regeneration was carried out under more mild conditions, i.e., by injecting 30 μl of HBS-P containing 3 mM EDTA (HBS-EP; GE Healthcare) for 60 s, to prolong the lifespan of the chip.
(§3) Compounds were also injected over the immobilised surfaces in the absence of S100A9 to exclude, or make possible correction for, any direct binding of compound to the surface.
(§4) Evaluation was carried out using BIAevaluation Software version 3.2 (GE Healthcare). The response at steady-state was obtained by fit of sensorgrams to standard binding models, where appropriate, or calculated as responses at late association or early dissociation phase using the Steady state affinity function in BIAevaluation. Affinity was determined from kinetic analysis (on- and off-rates) or as the apparent affinity after plotting responses versus concentration of analyte in a saturation curve. In the inhibition assay format, the competitor concentration yielding 50% inhibition (IC50) was calculated by fitting data to a one-site competition model in GraphPad Prism.

[1] = target: T2, human S100A9 binding to human RAGE (Homo sapiens, UniProt P06702); experiment: SPR: inhibition of human S100A9 binding to immobilised human RAGE; conditions: read-out: S100A9 binding IC50, hS100A9 RAGE; Table S1
T2 construct: purchased R&D Systems (RAGE/Fc); S100A9 made in house
T2 sequence (P06702 1-114): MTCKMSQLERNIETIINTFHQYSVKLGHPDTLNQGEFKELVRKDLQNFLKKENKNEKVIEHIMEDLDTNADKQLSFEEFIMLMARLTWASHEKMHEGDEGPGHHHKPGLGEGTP
Experimental: as §1, §2, §3, §4

mS100A9 and mRAGE/hFc = target: T3, mS100A9 and mRAGE/hFc (Mus musculus, UniProt P31725); experiment: SPR: inhibition of mouse S100A9 binding to immobilised mouse RAGE; conditions: read-out: S100A9 binding IC50, mS100A9 RAGE; Table S1
T3 construct: purchased R&D Systems (mRAGE/Fc); S100A9 made in house
T3 sequence (P31725 2-113 limits assumed): T1 sequence (P31725 2-113 limits assumed)
Experimental: as §1, §2, §3, §4

mS100A9 = target: T4, mS100A9 (Mus musculus, UniProt P31725); experiment: SPR: inhibition of mouse S100A9 binding to immobilised ABR-224649; conditions: Table S1
T4 construct: made in house; host or cells: Escherichia coli (or purified from granulocytes)
T4 sequence (P31725 1-113): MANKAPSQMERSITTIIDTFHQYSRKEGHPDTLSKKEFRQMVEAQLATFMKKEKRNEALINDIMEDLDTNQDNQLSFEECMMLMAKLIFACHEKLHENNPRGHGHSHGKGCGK
Experimental: as §1, §2, §3, §4

mS100A8/A9 and mRAGE = target: T5, mS100A8/A9 and mRAGE (Mus musculus, UniProt P31725); experiment: SPR: inhibition of mouse S100A8/A9 binding to mouse RAGE; conditions: read-out: S100A8-9 binding IC50, mS100A8/A9 RAGE; Table S1
T5 construct: purchased R&D Systems (mRAGE/Fc); S100A8/A9 made in house
T5 sequence (P31725 2-113 limits assumed): T1 sequence (P31725 2-113 limits assumed)
T5 sequence (P27005 2-89 partner limits assumed): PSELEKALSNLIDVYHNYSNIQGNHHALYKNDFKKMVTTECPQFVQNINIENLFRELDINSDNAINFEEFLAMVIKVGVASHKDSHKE
Experimental: as §1, §2, §3, §4

mS100A9 and mLPS-Trap = target: T6, mS100A9 and mLPS-Trap (Mus musculus, UniProt P31725); experiment: SPR: inhibition of mouse S100A9 binding to immobilised mouse TLR4/MD2 fusion protein (mLPS-Trap); conditions: for IC50: Table S1
T6 sequence (P31725 2-113 limits assumed): T1 sequence (P31725 2-113 limits assumed)
Experimental: as §1, §2, §3, §4

[2] = system: aEAE development in SLJ/N mice; experiment: acute experimental autoimmune encephalomyelitis (aEAE) in mice; format: in vivo, mouse
From the text: A training set of five quinoline derivatives with structural diversification performed at position 5 of the quinoline ring system was used for the SAR. PCA was used to uncover any relationship between the binding activities of the quinoline derivatives at the S100 proteins and the inhibitory effect of these derivatives in the aEAE model. PLS was then used to model the relationship between the physiochemical descriptors used to characterize the compounds and their biological responses. […] All variables were mean centred and scaled to unit variance.

[3] = target: T7, human S100A9 binding to human TLR4/MD2 (Homo sapiens, UniProt P06702); experiment: SPR: inhibition of human S100A9 binding to immobilised human TLR4/MD2; conditions: for IC50: Table S1, read-out: S100A9 binding IC50, hS100A9 TLR4
T7 construct: purchased R&D Systems (TLR4/MD-2 complex); S100A9 made in house
T7 sequence (P06702 1-114): T2 sequence (P06702 1-114)
Experimental: as §1, §2, §3, §4

human S100A9 = target: T8, human S100A9 (Homo sapiens, UniProt P06702); experiment: SPR: human S100A9 binding to immobilised ABR-224649 (Q compound), direct binding and displacement
T8 construct: made in house; host or cells: Escherichia coli (or purified from granulocytes)
T8 sequence (P06702 1-114): T2 sequence (P06702 1-114)
Experimental: as §1, §2, §3, §4

## CCN(C(=O)c1c(O)c2ccccc2n(C)c1=O)c1ccccc1 [ABR-212662]
mS100A8/A9 and mLPS-Trap
  IC50: 576 µM
[1]
  IC50: 436 µM
mS100A9 and mRAGE/hFc
  IC50: 1030 µM
mS100A9
  IC50: 1940 µM
mS100A8/A9 and mRAGE
  IC50: 720 µM
mS100A9 and mLPS-Trap
  IC50: 1970 µM
[2]
  aEAE Inhibition ED50: 1.87 mg/kg
[3]
  IC50: 415 µM

## CCN(C(=O)c1c(O)c2c(C)cccc2n(C)c1=O)c1ccccc1 [ABR-215111]
mS100A8/A9 and mLPS-Trap
  IC50: 293 µM
[1]
  IC50: 168 µM
mS100A9 and mRAGE/hFc
  IC50: 783 µM
mS100A9
  IC50: 1340 µM
mS100A8/A9 and mRAGE
  IC50: 310 µM
mS100A9 and mLPS-Trap
  IC50: 1240 µM
[2]
  aEAE Inhibition ED50: 0.55 mg/kg
[3]
  IC50: 217 µM

## CCN(C(=O)c1c(O)c2c(SC)cccc2n(C)c1=O)c1ccccc1 [ABR-215628]
mS100A8/A9 and mLPS-Trap
  IC50: 257 µM
[1]
  IC50: 135 µM
mS100A9 and mRAGE/hFc
  IC50: 447 µM
mS100A9
  IC50: 906 µM
mS100A8/A9 and mRAGE
  IC50: 174 µM
mS100A9 and mLPS-Trap
  IC50: 780 µM
[2]
  aEAE Inhibition ED50: 0.20 mg/kg
[3]
  IC50: 154 µM

## CCN(C(=O)c1c(O)c2c(C(F)(F)F)cccc2n(C)c1=O)c1ccccc1 [ABR-215629]
mS100A8/A9 and mLPS-Trap
  IC50: 301 µM
mS100A9 and mRAGE/hFc
  IC50: 230 µM
mS100A9
  IC50: 916 µM
mS100A8/A9 and mRAGE
  IC50: 351 µM
mS100A9 and mLPS-Trap
  IC50: 741 µM
[2]
  aEAE Inhibition ED50: 0.13 mg/kg
[3]
  IC50: 79 µM

## CCN(C(=O)c1c(O)c2c(Br)cccc2n(C)c1=O)c1ccccc1 [ABR-215727]
mS100A8/A9 and mLPS-Trap
  IC50: 200 µM
[1]
  IC50: 78.7 µM
mS100A9 and mRAGE/hFc
  IC50: 191 µM
mS100A9
  IC50: 522 µM
mS100A8/A9 and mRAGE
  IC50: 164 µM
mS100A9 and mLPS-Trap
  IC50: 440 µM
[2]
  aEAE Inhibition ED50: 0.16 mg/kg
[3]
  IC50: 87.9 µM

## CCc1cccc2c1c(O)c(C(=O)N(CCOCCN)c1ccccc1)c(=O)n2C [ABR-224649]
Human S100A9; coinjected with S100A9, unpublished data
  ability to displace S100A9 binding to immobilised ABR-224649: very similar ability to displace binding as ABR-215757
Human S100A9; steady-state responses vs 25–200 nM S100A9, 1 mM Ca2+, 10 μM Zn2+, read-out: half-maximal binding of S100A9 to immobilised ABR-224649
  Kd: 0.085 µM

## lipopolysaccharide [LPS, reference compound]
mS100A9 and mLPS-Trap
  effect on mS100A9 binding to immobilised mLPS-Trap: no effect
[3]; 200 ng/ml
  effect on hS100A9 binding to immobilised hTLR4/MD2: no effect
